According to ChEMBL document CHEMBL4507273 (2021):

Assays:
[1] = target: T1, 5-hydroxytryptamine receptor 2C (Homo sapiens, UniProt P28335); assay: GPCRScan assay: inhibition of 5-HT2C; design: radioligand conc. used [nm] 1.0 – 2.5, parental cells HEK T
T1 sequence (P28335 whole entry): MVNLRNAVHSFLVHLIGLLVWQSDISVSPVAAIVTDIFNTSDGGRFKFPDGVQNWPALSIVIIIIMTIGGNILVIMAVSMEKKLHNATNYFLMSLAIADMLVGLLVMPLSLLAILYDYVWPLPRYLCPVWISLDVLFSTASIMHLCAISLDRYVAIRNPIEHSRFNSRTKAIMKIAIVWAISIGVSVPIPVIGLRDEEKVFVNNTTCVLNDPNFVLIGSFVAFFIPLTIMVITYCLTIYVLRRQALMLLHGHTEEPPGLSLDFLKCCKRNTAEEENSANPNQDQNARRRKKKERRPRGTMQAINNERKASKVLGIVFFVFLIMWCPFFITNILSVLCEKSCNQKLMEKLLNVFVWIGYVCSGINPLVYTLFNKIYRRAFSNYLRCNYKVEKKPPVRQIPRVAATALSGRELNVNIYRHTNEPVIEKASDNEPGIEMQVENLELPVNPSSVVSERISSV

[2] = target: Mitogen-activated protein kinase kinase kinase 5 (Homo sapiens) (UniProt Q99683); details: Compound concentration 1000.0 nM
[3] = target: SRSF protein kinase 2 (Homo sapiens) (UniProt P78362); details: Compound concentration 1000.0 nM
[4] = target: Serine/threonine-protein kinase D3 (Homo sapiens) (UniProt O94806); details: Compound concentration 1000.0 nM
[5] = target: Serine/threonine-protein kinase Nek1 (Homo sapiens) (UniProt Q96PY6); details: Compound concentration 1000.0 nM
[6] = target: Myosin light chain kinase 2, skeletal/cardiac muscle (Homo sapiens) (UniProt Q9H1R3); details: Compound concentration 1000.0 nM
[7] = target: Eukaryotic translation initiation factor 2-alpha kinase 1 (Homo sapiens) (UniProt Q9BQI3); details: Compound concentration 1000.0 nM
[8] = target: Misshapen-like kinase 1 (Homo sapiens) (UniProt Q8N4C8); details: Compound concentration 1000.0 nM
[9] = target: Calcium/calmodulin-dependent protein kinase type IV (Homo sapiens) (UniProt Q16566); details: Compound concentration 1000.0 nM
[10] = test system: Tyrosine-protein kinase ABL1 (Homo sapiens), P00519 [F317L]; details: Compound concentration 1000.0 nM
[11] = target: Guanine nucleotide exchange factor DBS (Homo sapiens, UniProt O15068); assay: CDC42 activation by DBS assay
[12] = target: Serine/threonine-protein kinase 32C (Homo sapiens) (UniProt Q86UX6); details: Compound concentration 1000.0 nM
[13] = target: Serine/threonine-protein kinase tousled-like 1 (Homo sapiens) (UniProt Q9UKI8); details: Compound concentration 1000.0 nM
[14] = target: Tyrosine-protein kinase JAK3 (Homo sapiens) (UniProt P52333); details: Compound concentration 1000.0 nM
[15] = test system: Phosphatidylinositol 4,5-bisphosphate 3-kinase catalytic subunit alpha isoform (Homo sapiens), P42336 [I800L]; details: Compound concentration 1000.0 nM
[16] = target: Serine/threonine-protein kinase B-raf (Homo sapiens) (UniProt P15056); details: Compound concentration 1000.0 nM
[17] = target: MAP kinase-activated protein kinase 5 (Homo sapiens) (UniProt Q8IW41); details: Compound concentration 1000.0 nM
[18] = test system: ALK tyrosine kinase receptor (Homo sapiens), Q9UM73 [C1156Y]; details: Compound concentration 1000.0 nM
[19] = target: Calcium/calmodulin-dependent protein kinase type 1B (Homo sapiens) (UniProt Q6P2M8); details: Compound concentration 1000.0 nM
[20] = target: Tyrosine-protein kinase JAK2 (Homo sapiens) (UniProt O60674); details: Compound concentration 1000.0 nM
[21] = target: Mitogen-activated protein kinase 14 (Homo sapiens) (UniProt Q16539); details: Compound concentration 1000.0 nM
[22] = target: cGMP-dependent protein kinase 2 (Homo sapiens) (UniProt Q13237); details: Compound concentration 1000.0 nM
[23] = target: Tyrosine-protein kinase Fer (Homo sapiens) (UniProt P16591); details: Compound concentration 1000.0 nM
[24] = target: D(4) dopamine receptor (Homo sapiens) (UniProt P21917); details: Compound concentration 10.0 uM
[25] = target: Cyclin-dependent kinase 16 (Homo sapiens) (UniProt Q00536); details: Compound concentration 1000.0 nM
Histamine H4 receptor = Histamine H4 receptor (Homo sapiens, UniProt Q9H3N8); details: Compound concentration 10.0 uM
[26] = target: TGF-beta receptor type-1 (Homo sapiens) (UniProt P36897); details: Compound concentration 1000.0 nM
[27] = target: Mitogen-activated protein kinase 4 (Homo sapiens) (UniProt P31152); details: Compound concentration 1000.0 nM
[28] = target: Peripheral plasma membrane protein CASK (Homo sapiens) (UniProt O14936); details: Compound concentration 1000.0 nM
[29] = test system: Phosphatidylinositol 4,5-bisphosphate 3-kinase catalytic subunit alpha isoform (Homo sapiens), P42336 [M1043I]; details: Compound concentration 1000.0 nM
[30] = target: T2, Alpha-2B adrenergic receptor (Homo sapiens, UniProt P18089); assay: GPCRScan assay: inhibition of Alpha2B; design: radioligand conc. used [nm] 1.5 – 2.0, parental cells HEKT
T2 sequence (P18089 whole entry): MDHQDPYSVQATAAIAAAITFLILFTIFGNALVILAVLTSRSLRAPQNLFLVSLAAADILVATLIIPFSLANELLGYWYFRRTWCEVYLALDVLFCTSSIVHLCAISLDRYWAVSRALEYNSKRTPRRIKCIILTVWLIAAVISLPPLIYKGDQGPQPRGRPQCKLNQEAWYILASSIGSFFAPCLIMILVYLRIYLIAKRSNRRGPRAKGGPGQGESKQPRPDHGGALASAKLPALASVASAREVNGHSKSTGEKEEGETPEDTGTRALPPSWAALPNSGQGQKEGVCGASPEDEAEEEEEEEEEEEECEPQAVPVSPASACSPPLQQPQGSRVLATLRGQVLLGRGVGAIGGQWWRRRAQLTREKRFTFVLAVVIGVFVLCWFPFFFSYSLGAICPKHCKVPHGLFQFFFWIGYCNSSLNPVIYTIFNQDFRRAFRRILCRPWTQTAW

[31] = target: Dual specificity protein kinase CLK2 (Homo sapiens) (UniProt P49760); details: Compound concentration 1000.0 nM
[32] = target: Serine/threonine-protein kinase ICK (Homo sapiens) (UniProt Q9UPZ9); details: Compound concentration 1000.0 nM

Sequence of Tyrosine-protein kinase Fer (Homo sapiens) (P16591 whole entry, looked up): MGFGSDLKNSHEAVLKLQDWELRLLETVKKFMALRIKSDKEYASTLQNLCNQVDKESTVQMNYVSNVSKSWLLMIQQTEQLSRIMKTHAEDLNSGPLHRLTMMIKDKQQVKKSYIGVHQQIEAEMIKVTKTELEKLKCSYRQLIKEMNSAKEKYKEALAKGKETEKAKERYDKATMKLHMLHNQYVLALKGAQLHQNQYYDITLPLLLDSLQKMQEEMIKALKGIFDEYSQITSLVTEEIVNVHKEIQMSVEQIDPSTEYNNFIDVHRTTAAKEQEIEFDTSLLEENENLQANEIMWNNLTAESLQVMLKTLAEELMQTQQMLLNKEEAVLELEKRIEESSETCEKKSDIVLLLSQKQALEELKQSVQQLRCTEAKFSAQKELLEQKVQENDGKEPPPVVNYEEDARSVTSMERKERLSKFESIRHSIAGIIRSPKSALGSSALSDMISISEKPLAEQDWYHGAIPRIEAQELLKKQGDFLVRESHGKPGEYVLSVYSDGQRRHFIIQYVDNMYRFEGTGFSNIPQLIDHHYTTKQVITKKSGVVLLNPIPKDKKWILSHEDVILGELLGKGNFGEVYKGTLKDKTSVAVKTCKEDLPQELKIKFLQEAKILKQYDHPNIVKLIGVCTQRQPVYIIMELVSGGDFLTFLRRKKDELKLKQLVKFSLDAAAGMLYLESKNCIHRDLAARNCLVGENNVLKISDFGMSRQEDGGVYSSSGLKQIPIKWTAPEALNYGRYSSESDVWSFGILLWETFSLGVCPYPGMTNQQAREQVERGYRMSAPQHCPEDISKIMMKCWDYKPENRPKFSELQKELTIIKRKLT
Sequence of Tyrosine-protein kinase JAK2 (Homo sapiens) (O60674 whole entry): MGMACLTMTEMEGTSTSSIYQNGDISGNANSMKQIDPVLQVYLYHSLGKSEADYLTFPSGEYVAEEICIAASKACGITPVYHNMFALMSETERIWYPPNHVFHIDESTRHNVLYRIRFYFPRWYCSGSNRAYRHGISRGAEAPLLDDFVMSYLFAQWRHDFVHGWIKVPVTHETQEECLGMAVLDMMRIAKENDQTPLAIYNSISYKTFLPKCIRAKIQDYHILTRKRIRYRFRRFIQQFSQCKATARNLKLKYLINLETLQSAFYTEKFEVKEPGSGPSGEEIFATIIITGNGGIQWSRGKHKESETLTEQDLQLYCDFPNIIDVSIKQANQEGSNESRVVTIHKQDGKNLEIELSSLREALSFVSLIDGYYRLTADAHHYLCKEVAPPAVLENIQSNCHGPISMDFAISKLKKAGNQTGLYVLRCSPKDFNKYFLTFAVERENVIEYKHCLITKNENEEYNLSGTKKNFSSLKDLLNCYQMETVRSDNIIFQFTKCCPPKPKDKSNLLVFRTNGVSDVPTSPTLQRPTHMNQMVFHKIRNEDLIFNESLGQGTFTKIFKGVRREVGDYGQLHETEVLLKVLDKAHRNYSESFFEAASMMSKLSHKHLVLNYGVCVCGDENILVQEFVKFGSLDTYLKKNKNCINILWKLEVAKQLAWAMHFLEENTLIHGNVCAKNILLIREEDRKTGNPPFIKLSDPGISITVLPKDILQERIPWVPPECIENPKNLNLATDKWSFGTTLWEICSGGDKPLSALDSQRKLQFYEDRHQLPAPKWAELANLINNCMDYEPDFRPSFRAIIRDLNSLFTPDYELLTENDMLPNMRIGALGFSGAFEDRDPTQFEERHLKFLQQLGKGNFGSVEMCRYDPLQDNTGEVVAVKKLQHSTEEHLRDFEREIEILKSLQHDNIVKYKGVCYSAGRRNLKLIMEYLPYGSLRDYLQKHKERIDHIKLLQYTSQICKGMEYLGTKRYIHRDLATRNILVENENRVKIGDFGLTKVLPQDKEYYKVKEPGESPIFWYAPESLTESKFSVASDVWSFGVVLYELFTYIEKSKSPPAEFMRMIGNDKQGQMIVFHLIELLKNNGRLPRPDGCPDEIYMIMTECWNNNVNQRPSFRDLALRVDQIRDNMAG
Sequence of Serine/threonine-protein kinase tousled-like 1 (Homo sapiens) (Q9UKI8 whole entry): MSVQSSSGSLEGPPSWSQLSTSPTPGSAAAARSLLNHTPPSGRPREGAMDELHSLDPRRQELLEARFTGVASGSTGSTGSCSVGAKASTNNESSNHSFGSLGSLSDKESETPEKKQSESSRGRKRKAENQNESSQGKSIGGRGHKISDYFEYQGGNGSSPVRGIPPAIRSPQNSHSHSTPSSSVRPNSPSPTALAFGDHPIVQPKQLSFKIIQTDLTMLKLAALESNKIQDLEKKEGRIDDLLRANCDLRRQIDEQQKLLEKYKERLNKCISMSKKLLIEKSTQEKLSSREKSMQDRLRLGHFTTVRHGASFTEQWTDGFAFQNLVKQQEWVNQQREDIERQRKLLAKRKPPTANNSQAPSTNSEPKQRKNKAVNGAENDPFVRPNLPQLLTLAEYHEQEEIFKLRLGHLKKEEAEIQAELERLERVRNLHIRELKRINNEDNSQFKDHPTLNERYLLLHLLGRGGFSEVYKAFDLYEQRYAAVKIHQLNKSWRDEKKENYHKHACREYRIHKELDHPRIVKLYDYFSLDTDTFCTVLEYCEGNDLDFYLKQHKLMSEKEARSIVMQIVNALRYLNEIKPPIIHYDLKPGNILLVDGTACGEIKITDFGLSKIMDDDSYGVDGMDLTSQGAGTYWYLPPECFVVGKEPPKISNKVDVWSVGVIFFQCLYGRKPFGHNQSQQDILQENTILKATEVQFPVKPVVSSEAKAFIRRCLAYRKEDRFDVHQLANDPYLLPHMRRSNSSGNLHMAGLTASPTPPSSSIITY
Sequence of Tyrosine-protein kinase JAK3 (Homo sapiens) (P52333 whole entry, canonical isoform): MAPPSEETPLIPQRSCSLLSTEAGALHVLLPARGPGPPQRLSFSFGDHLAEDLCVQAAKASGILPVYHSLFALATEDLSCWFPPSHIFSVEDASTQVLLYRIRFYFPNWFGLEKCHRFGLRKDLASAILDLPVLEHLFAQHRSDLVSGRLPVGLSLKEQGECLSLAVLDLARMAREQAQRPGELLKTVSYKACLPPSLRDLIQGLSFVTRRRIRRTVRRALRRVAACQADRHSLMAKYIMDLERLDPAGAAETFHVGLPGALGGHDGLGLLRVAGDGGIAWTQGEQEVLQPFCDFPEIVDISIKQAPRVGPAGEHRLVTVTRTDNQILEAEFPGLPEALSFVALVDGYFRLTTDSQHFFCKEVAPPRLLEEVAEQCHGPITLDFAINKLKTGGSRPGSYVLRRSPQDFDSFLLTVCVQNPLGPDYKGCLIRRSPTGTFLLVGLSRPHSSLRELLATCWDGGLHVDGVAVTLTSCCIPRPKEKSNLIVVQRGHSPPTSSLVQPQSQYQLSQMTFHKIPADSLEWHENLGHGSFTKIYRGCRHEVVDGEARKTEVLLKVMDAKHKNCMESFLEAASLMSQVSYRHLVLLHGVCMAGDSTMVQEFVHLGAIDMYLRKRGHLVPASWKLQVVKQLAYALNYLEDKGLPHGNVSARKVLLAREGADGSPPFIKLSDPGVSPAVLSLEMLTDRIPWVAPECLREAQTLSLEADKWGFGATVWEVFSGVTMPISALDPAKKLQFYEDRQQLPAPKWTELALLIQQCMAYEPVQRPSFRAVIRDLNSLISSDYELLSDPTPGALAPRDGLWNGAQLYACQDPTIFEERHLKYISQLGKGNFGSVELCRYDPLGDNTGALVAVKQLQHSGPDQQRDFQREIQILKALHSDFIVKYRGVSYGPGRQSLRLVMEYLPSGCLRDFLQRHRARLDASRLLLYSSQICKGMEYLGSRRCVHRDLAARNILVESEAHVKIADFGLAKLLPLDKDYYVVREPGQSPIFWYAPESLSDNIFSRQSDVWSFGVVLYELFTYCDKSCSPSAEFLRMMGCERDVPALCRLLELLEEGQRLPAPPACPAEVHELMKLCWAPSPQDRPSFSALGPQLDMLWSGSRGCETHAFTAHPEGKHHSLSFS
Sequence of TGF-beta receptor type-1 (Homo sapiens) (P36897 whole entry): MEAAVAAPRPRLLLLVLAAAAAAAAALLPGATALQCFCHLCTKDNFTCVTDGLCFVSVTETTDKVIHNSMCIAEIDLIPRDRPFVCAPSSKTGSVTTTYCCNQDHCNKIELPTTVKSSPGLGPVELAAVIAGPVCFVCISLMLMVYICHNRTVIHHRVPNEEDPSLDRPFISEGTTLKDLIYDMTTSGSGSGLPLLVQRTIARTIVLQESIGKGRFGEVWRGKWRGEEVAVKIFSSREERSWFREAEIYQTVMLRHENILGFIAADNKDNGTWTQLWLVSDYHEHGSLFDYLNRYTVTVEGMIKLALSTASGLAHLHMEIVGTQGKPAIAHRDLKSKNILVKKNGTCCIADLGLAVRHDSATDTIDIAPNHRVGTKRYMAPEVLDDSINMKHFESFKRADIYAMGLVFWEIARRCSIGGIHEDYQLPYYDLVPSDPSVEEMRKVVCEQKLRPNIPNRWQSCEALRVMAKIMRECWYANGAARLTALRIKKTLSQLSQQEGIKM
Sequence of Calcium/calmodulin-dependent protein kinase type 1B (Homo sapiens) (Q6P2M8 whole entry): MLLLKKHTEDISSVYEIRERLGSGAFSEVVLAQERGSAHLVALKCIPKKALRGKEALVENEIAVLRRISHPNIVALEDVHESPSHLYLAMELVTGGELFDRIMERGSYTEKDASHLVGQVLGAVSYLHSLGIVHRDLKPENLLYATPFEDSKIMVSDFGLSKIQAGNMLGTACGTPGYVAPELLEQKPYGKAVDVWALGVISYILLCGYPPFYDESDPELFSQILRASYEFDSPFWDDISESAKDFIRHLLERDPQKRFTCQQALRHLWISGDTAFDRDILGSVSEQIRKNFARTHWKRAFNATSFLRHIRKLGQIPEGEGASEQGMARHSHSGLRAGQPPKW
Sequence of Mitogen-activated protein kinase 14 (Homo sapiens) (Q16539 whole entry): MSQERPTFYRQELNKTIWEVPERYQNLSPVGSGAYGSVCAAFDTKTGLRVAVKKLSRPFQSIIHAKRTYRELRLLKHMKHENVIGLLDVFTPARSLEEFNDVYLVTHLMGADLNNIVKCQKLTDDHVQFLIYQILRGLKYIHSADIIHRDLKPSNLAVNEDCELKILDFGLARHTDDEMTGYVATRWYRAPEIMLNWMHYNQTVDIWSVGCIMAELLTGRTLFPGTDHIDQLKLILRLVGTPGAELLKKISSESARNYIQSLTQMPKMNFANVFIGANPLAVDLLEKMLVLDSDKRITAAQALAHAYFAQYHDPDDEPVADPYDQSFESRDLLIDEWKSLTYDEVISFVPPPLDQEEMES

| Structure (SMILES) | Ki ([1]; read-out: Ki) [µM] | Ki ([1]; read-out: pKi (converted)) [µM] | residual activity [2] [%] | residual activity [3] [%] | residual activity [4] [%] | residual activity [5] [%] | residual activity [6] [%] | residual activity [7] [%] | residual activity [8] [%] | residual activity [9] [%] | residual activity [10] [%] | IC50 [11] | residual activity [12] [%] | residual activity [13] [%] | residual activity [14] [%] | residual activity [15] [%] | residual activity [16] [%] | residual activity [17] [%] | residual activity [18] [%] | residual activity [19] [%] | further results |
| --- | --- | --- | --- | --- | --- | --- | --- | --- | --- | --- | --- | --- | --- | --- | --- | --- | --- | --- | --- | --- | --- |
| CNCc1ccccc1-c1csc([C@H](C)Nc2nc(C)nc3cc(OC)c(OC)cc23)c1 [BAY-294] | 0.706 | 0.692 | 100 | 52 | 100 | 100 | 100 | 100 | 88 | 99 | 97 | > 20 µM (not active) | 71 | 100 | 99 | 81 | 97 | 100 | 100 | 100 | residual activity [20]: 63%; residual activity [21]: 100%; residual activity [22]: 93%; residual activity [23]: 100%; inhibition [24]: 31%; residual activity [25]: 83%; inhibition (Histamine H4 receptor): 67%; residual activity [26]: 80%; residual activity [27]: 95%; residual activity [28]: 71%; residual activity [29]: 100%; Ki ([30]; read-out: Ki): 0.847 µM; Ki ([30]; read-out: pKi (converted)): 0.813 µM; residual activity [31]: 100%; residual activity [32]: 86% |
| CNCc1ccccc1-c1csc([C@@H](C)Nc2nc(C)nc3cc(OC)c(OC)cc23)c1 [BAY-293] | 3.4 | 2.88 | 91 | 61 | 92 | 91 | 91 | 100 | 57 | 88 | 86 | > 20 µM (not active) | 60 | 100 | 94 | 85 | 100 | 88 | 100 | 95 | residual activity [20]: 67%; residual activity [21]: 87%; residual activity [22]: 85%; residual activity [23]: 100%; inhibition [24]: 56.7%; residual activity [25]: 87%; inhibition (Histamine H4 receptor): 42.1%; residual activity [26]: 74%; residual activity [27]: 94%; residual activity [28]: 81%; residual activity [29]: 56%; Ki ([30]; read-out: Ki): 1.23 µM; residual activity [31]: 98%; residual activity [32]: 82% |
